Reference: ChEMBL document CHEMBL5523679, “Discovery of 1,2,3-triazole incorporated indole-piperazines as potent antitubercular agents: Design, synthesis, in vitro biological evaluation, molecular docking and ADME studies” (Bioorg Med Chem, 2024)
In brackets after ≈: the same amount, converted by molar mass.

Experiments:
Staphylococcus aureus [1] = assay: Antibacterial activity against Staphylococcus aureus assessed as inhibition zone at 25 ug/ml by diffusion method; format: functional; settings: read-out: IZ
Escherichia coli [2] = assay: Antibacterial activity against Escherichia coli assessed as inhibition zone at 50 ug/ml by diffusion method; format: functional; settings: read-out: IZ
Pseudomonas aeruginosa [3] = assay: Antibacterial activity against Pseudomonas aeruginosa assessed as inhibition zone at 75 ug/ml by diffusion method; format: functional; settings: read-out: IZ
Staphylococcus aureus [4] = assay: Antibacterial activity against Staphylococcus aureus assessed as inhibition zone at 75 ug/ml by diffusion method; format: functional; settings: read-out: IZ
Escherichia coli [5] = assay: Antibacterial activity against Escherichia coli assessed as inhibition zone at 75 ug/ml by diffusion method; format: functional; settings: read-out: IZ
Pseudomonas aeruginosa [6] = assay: Antibacterial activity against Pseudomonas aeruginosa assessed as inhibition zone at 50 ug/ml by diffusion method; format: functional; settings: read-out: IZ
Pseudomonas aeruginosa [7] = assay: Antibacterial activity against Pseudomonas aeruginosa assessed as inhibition zone at 25 ug/ml by diffusion method; format: functional; settings: read-out: IZ
[8] = test system: Mycobacterium tuberculosis; assay: Antimycobacterial activity against Mycobacterium tuberculosis H37Rv assessed as bacterial growth inhibition by microplate Alamar blue assay; format: functional
Staphylococcus aureus [9] = assay: Antibacterial activity against Staphylococcus aureus assessed as inhibition zone at 50 ug/ml by diffusion method; format: functional; settings: read-out: IZ
[10] = Cytotoxicity against African green monkey Vero cells measured after 72 hrs by MTT assay; format: toxicity, cell-based; settings: chlorocebus sabaeus
[11] = Cytotoxicity against African green monkey Vero cells assessed as inhibition of cell growth at 6.25 ug/ml measured after 72 hrs by MTT assay relative to control; format: toxicity, cell-based; settings: chlorocebus sabaeus, at 6.25 µg/mL
[12] = Selectivity index, ratio of CC50 for African green monkey Vero cells to MIC for Mycobacterium tuberculosis H37Rv; format: toxicity; settings: read-out: Selectivity Index
Escherichia coli [13] = assay: Antibacterial activity against Escherichia coli assessed as inhibition zone at 25 ug/ml by diffusion method; format: functional; settings: read-out: IZ

| SMILES | zone of inhibition at 25 µg/mL (Staphylococcus aureus [1]) | zone of inhibition at 50 µg/mL (Escherichia coli [2]) | zone of inhibition at 75 µg/mL (Pseudomonas aeruginosa [3]) | zone of inhibition at 75 µg/mL (Staphylococcus aureus [4]) | zone of inhibition at 75 µg/mL (Escherichia coli [5]) | zone of inhibition at 50 µg/mL (Pseudomonas aeruginosa [6]) | zone of inhibition at 25 µg/mL (Pseudomonas aeruginosa [7]) | MIC [8] | zone of inhibition at 50 µg/mL (Staphylococcus aureus [9]) | CC50 at 72 h [10] | inhibition at 72 h, 6.25 ug/ml [11] | selectivity ratio [12] | zone of inhibition at 25 µg/mL (Escherichia coli [13]) |
| --- | --- | --- | --- | --- | --- | --- | --- | --- | --- | --- | --- | --- | --- |
| O=C(Cc1cn(Cc2ccc(F)cc2)c2ccccc12)N1CCN(S(=O)(=O)c2ccccc2)CC1 | 15 mm | 13 mm | 18 mm | 20 mm | 15 mm | 15 mm | 10 mm | 50.8 µM | 18 mm |  |  |  |  |
| O=C(CCc1cn(Cc2ccc(F)cc2)c2ccccc12)N1CCN(C(=O)c2ccc(F)cc2)CC1 | 13 mm | 15 mm | 13 mm | 23 mm | 18 mm |  |  | 12.8 µM | 17 mm | 619 µg/mL (≈ 1270 µM) | 31.9% | 198 |  |
| O=C(CCc1cn(Cc2cn(Cc3ccc(F)cc3)nn2)c2ccccc12)N1CCN(C(=O)c2cccnc2)CC1 | 6 mm | 23 mm | 10 mm | 18 mm | 25 mm |  |  | 2.9 µM | 15 mm | 1170 µg/mL (≈ 2120 µM) | 11.7% | 732 | 15 mm |
| O=C(Cc1c[nH]c2ccccc12)N1CCN(S(=O)(=O)c2ccccc2)CC1 | 13 mm | 15 mm | 18 mm | 18 mm | 17 mm | 15 mm | 13 mm | > 120 µM | 15 mm |  |  |  | 13 mm |
| O=C(O)c1cn(C2CC2)c2cc(N3CCNCC3)c(F)cc2c1=O [CIPROFLOXACIN] | 18 mm | 27 mm | 21 mm | 26 mm | 32 mm | 18 mm | 15 mm |  | 21 mm |  |  |  |  |
| Cc1ccc(S(=O)(=O)N2CCN(C(=O)CCc3cn(Cc4cn(Cc5ccc(F)cc5)nn4)c4ccccc34)CC2)cc1 | 12 mm | 20 mm | 15 mm | 20 mm | 20 mm | 13 mm | 9 mm | 20.8 µM | 15 mm |  |  |  | 15 mm |
